Test results from PubChem BioAssay AID1508591.

conditions: rat; liver microsomes; pH 7.4; 15.0 min; 1.0 µM

Row | SMILES | half-life [min]
1 | CCCNC(=O)c1ccc2c(c1)N=C(C)c1c(C)ccc(C)c1S2 | 1.34
2 | CCNC(=O)c1ccc(-c2ccc3ncnc(NCC4CCCO4)c3c2)o1 (stereo unspecified) | > 30
3 | O=C(c1ccncc1)N1CCC2(CCCN(C(c3ccccc3)c3ccccc3)C2)CC1 | 2.2
4 | COC(=O)c1cccc(NC(=O)c2cnc(-c3ccc(F)cc3)nc2-c2ccncc2)c1 | 9.09
5 | N#Cc1ccc(-c2csc(N3CCC(C(N)=O)CC3)n2)cc1 | 16.2
6 | Cc1ccc(S(=O)(=O)Nc2cnccc2C(=O)Nc2ccc(-c3nn[nH]n3)cc2)cc1 | > 30
7 | Cc1ccc(-c2csc(CCn3nc(C)c4c(C(F)(F)F)cc(=O)[nH]c43)n2)cc1 | 4.7
8 | CCc1ccc(NC(=O)c2[nH]c(C)c(C(C)=O)c2C)cc1S(=O)(=O)Nc1ccc(C#N)cc1 | 14.7
9 | Cc1cc(C)cc(NS(=O)(=O)c2ccc3[nH]cc(C(=O)NCc4ccco4)c(=O)c3c2)c1 | 1.84
10 | CCc1cccc(NS(=O)(=O)c2ccc3c(c2)CC(C)N3C(=O)C2CC2)c1 (stereo unspecified) | 1.96
11 | CN(C(=O)CSc1nc2c(c(=O)[nH]1)CCCC2)c1ccccc1 | 13
12 | Cc1ccc(S(=O)(=O)Nc2cccc(C(=O)Nc3nc(-c4ccccc4)cs3)c2Cl)cc1 | 15
13 | CCOc1ccc(CCNC(=O)c2cc3sccc3n2Cc2ccccc2)cc1OCC | 1.7
14 | Cc1c(NC2=C(Cl)C(=O)N(c3ccccc3)C2=O)c(=O)n(-c2ccccc2)n1C | 23
15 | O=C(NCC1CCOCC1)C1CC(=O)N(c2n[nH]c3cc(Br)ccc23)C1 (stereo unspecified) | > 30
16 | CCN1CCC(N(Cc2ccc3c(c2)OCO3)C(=O)Nc2cc(Cl)ccc2C(=O)OC)CC1 | 6.72
17 | COc1ccc(C2CC(=O)Nc3nc(N)sc32)cc1OC (stereo unspecified) | > 30
18 | CN1CCN(C2=Nc3ccccc3Sc3ccc(Cl)cc32)CC1 | 1.11
19 | CCOc1ccc(N2C(=O)c3n[nH]c(-c4cccs4)c3C2c2cccc(F)c2)cc1 (stereo unspecified) | 14.2
20 | CC(=O)c1c(C)[nH]c(C(=O)Nc2cccc([S+](=O)([O-])Nc3ccccc3C)c2)c1C | 4.4
21 | COc1ccc(-c2cc(C)nc3c(-c4ccc(OC)c(OC)c4)c(C)nn23)cc1 | > 30
22 | C=Cc1ccc(Cn2c(C(=O)O)c(CNC3CCCCC3)c3ccc(OC)cc32)cc1 | 7.15
23 | CCOc1cc(CNc2ccc(O)cc2)ccc1OCc1ccc(Cl)cc1 | 3.84
24 | CNC(=O)c1ccccc1Nc1nc(Nc2ccc(N3CCOCC3)cc2OC)ncc1Cl | > 30
25 | CCn1c(C(=O)N2CCCC(C(=O)NCCc3ccc(C)cc3)C2)cc2sccc21 (stereo unspecified) | 1.7
26 | Cc1ccc(N2CCC(CNc3nc(-c4ccccc4C(C)C)ncc3C)CC2)cn1 | 2.6

Row | SMILES | half-life [min]
27 | Fc1ccc(Nc2nccc(-c3ccncc3)n2)cc1F | 16
28 | O=S(=O)(c1ccccc1)N1CCN(c2nc(-c3ccc(Br)cc3)cs2)CC1 | 27.7
29 | Cc1noc(C)c1-c1csc(N2CCC(C(N)=O)CC2)n1 | > 30
30 | O=[S+]([O-])(Nc1cccc2cccnc12)c1ccc(NCc2ccc(Cl)cc2O)cc1 | 2.4
31 | Cc1ccc(-c2cc(C(=O)Nc3ccc(-n4cncn4)cc3)c3ccccc3n2)cc1C | 23
32 | Cc1ccc(S(=O)(=O)Nc2ccc(Cl)c(C(=O)Nc3nc(-c4ccccc4)cs3)c2)cc1 | 18
33 | CSc1nc(N)cc(Oc2ccc(-c3nc(Nc4cccc(C(F)(F)F)c4)n[nH]3)cc2)n1 | 21.2
34 | COc1cccc(CNc2ccc(S(=O)(=O)Nc3nccs3)cc2)c1OC | 11
35 | CC(C)CCNC(=O)[C@H](CC(C)C)NC(=O)[C@H]1O[C@@H]1C(=O)O | > 30
36 | Cc1cc(-c2nnc3n2CCCCC3)c(C)n1-c1cccc(C(F)(F)F)c1 | 1.9
37 | CCN1CCCC1CNC(=O)c1cc(S(=O)(=O)CC)c(N)cc1OC (stereo unspecified) | > 30
38 | Cc1cc(C)nc(NC(=S)N2CCN(c3ccncc3)CC2)c1 | > 30
39 | CC[C@@](C)(Nc1ccnc(-c2c[nH]c3ncccc23)n1)C(=O)NCC(F)(F)F | 27.8
40 | O=c1cc(CSc2ccc(Cl)cc2)nc(-c2ccccn2)[nH]1 | 1.52
41 | O=S(=O)(Nc1nccs1)c1ccc(NCc2ccc(Cl)cc2O)cc1 | 7.5
42 | CCOc1ccc(CCNC(=O)c2cc3ccncc3n2Cc2cccc(C)n2)cc1OCC | 29
43 | COc1ccc(-c2cc(-c3ccccc3)nc(SCC(=O)Nc3ccccc3C)c2C#N)cc1 | 2.47
44 | Fc1ccc(-c2csc3ncnc(Sc4nnnn4-c4ccccc4)c23)cc1 | 1.6
45 | Cc1ccc(CSCc2ccc(C(=O)NC3CC3)o2)cc1 | 1.7
46 | CC(C)(C)c1ccc(S(=O)(=O)c2cnc(SCC(=O)Nc3ccc(F)c(Cl)c3)[nH]c2=O)cc1 | 5.92
47 | CC(=O)NCCNC[C@@H]1C=C(C)[C@H](Cc2nnc(-c3ccccc3)o2)C[C@H]1C(C)C | 5.06
48 | Cc1cc(-c2cc3c(nc2-c2ccccc2)nc(C(=O)NCCN(C)C)n3C)ccn1 | > 30
49 | C[C@H]1CCC[C@H](O)CCC/C=C/c2cc(O)cc(O)c2C(=O)O1 | 15.2
50 | Cc1cccc(CNc2ccc(S(=O)(=O)Nc3nccs3)cc2)c1O | 21
51 | Cc1cc(C)nc(NC(=S)N2CCN(c3cccc(C(F)(F)F)n3)CC2)c1 | 28
